Reference: US20180002288A1, “USE OF PICOLINAMIDES AS FUNGICIDES” (DOW AGROSCIENCES LLC, priority 2014, published 2018)
Where two headings read alike, the source gives them in different places.

Tests used:
Zymoseptoria tritici = assay: Leaf Blotch of Wheat fungicidal activity (SEPTTR); assay type: in vivo; details: for pest or weed control at 121.5 g/ha: Low Volume Cereal Activity at 121.5 g/Ha; for pest or weed control at 100 ppm: wheat, high volume
Phakopsora pachyrhizi = assay: Asian Soybean Rust fungicidal activity (PHAKPA); details: for pest or weed control at 25 ppm: Phakopsora pachyrhizi, in Glycine max
Puccinia triticina = assay: Wheat Brown Rust fungicidal activity (PUCCRT); assay type: in vivo; details: for pest or weed control at 121.5 g/ha: Low Volume Cereal Activity at 121.5 g/Ha; for pest or weed control at 100 ppm: wheat, high volume
[1] = 24 h, 1 Day Protectant, read-out: SEPTTR 1DP (Wheat Leaf Blotch, 1 Day Protectant)
[2] = 72 h, 3 Day Curative, read-out: SEPTTR 3DC (Wheat Leaf Blotch, 3 Day Curative)
[3] = 24 h, read-out: PHAKPA 1DP % Control rating, soybean, high volume, 25 ppm, 1 Day Protectant
[4] = 72 h, read-out: PHAKPA 3DC % Control rating, soybean, high volume, 25 ppm, 3 Day Curative
[5] = 24 h, 1 Day Protectant, read-out: PUCCRT 1DP (Wheat Brown Rust, 1 Day Protectant)
[6] = 72 h, 3 Day Curative, read-out: PUCCRT 3DC (Wheat Brown Rust, 3 Day Curative)
[7] = 24 h, 1 Day Protectant, read-out: SEPTTR 1DP % Control rating
[8] = 72 h, 3 Day Curative, read-out: SEPTTR 3DC % Control rating
[9] = 24 h, 1 Day Protectant, read-out: PUCCRT 1DP % Control rating
[10] = 72 h, 3 Day Curative, read-out: PUCCRT 3DC % Control rating

Structure (SMILES) | pest or weed control at 121.5 g/ha (Zymoseptoria tritici; [1]) [%] | pest or weed control at 121.5 g/ha (Zymoseptoria tritici; [2]) [%] | pest or weed control at 25 ppm (Phakopsora pachyrhizi; [3]) [%] | pest or weed control at 25 ppm (Phakopsora pachyrhizi; [4]) [%] | pest or weed control at 121.5 g/ha (Puccinia triticina; [5]) [%] | pest or weed control at 121.5 g/ha (Puccinia triticina; [6]) [%] | PHAKPA 3DC % Control rating (Phakopsora pachyrhizi; soybean, high volume, 25 ppm, 3 Day Curative) | pest or weed control at 100 ppm (Zymoseptoria tritici; [7]) [%] | pest or weed control at 100 ppm (Zymoseptoria tritici; [8]) [%] | pest or weed control at 100 ppm (Puccinia triticina; [9]) [%] | pest or weed control at 100 ppm (Puccinia triticina; [10]) [%]
COc1cc(F)ccc1[C@@H](OC1CC1)[C@H](C)OC(=O)[C@H](C)NC(=O)c1nccc(OC)c1OC(C)=O [Example 299] | > 80 | > 80 | > 80 | < 80 | > 80 | < 80 |  |  |  |  | 
COc1ccnc(C(=O)N[C@@H](C)C(=O)O[C@@H](C)[C@H](Oc2ccccc2)c2ccc(F)cc2)c1OCOC(C)=O [Example 241] | > 80 | > 80 | > 80 | < 0 | > 80 | > 80 |  |  |  |  | 
COc1ccnc(C(=O)N[C@@H](C)C(=O)O[C@@H](C)[C@H](Oc2ccccc2)c2ccc(F)cc2OCC2CC2)c1OC(C)=O [Example 272] | > 80 | > 80 | < 80 | < 0 | > 80 | > 80 |  |  |  |  | 
COc1ccnc(C(=O)N[C@@H](C)C(=O)O[C@@H](C)[C@H](Oc2ccccc2)c2ccc(F)cc2)c1OC(C)=O [Example 242] | > 80 | > 80 | > 80 | < 80 | > 80 | > 80 |  |  |  |  | 
COc1cc(C)ccc1[C@@H](Oc1ccc(C)cc1)[C@H](C)OC(=O)[C@H](C)NC(=O)c1nccc(OC)c1OC(C)=O [Example 274] | > 80 | > 80 | < 80 | < 0 | > 80 | < 80 |  |  |  |  | 
COc1ccnc(C(=O)N[C@@H](C)C(=O)O[C@@H](C)[C@H](OCC2CC2)c2ccccc2)c1OCOC(C)=O [Example 182] | > 80 | > 80 | > 80 | < 80 | > 80 | > 80 |  |  |  |  | 
COc1cc(F)ccc1[C@@H](OC(=O)C(C)(C)C)[C@H](C)OC(=O)[C@H](C)NC(=O)c1nccc(OC)c1OC(C)=O [Example 296] | > 80 | > 80 | < 80 | < 80 | > 80 | < 0 |  |  |  |  | 
COc1ccnc(C(=O)N[C@@H](C)C(=O)O[C@@H](C)[C@H](OCC2CC2)c2cccc(-c3ccccc3)c2)c1OCOC(C)=O [Example 220] | < 80 | > 80 | > 80 | < 80 | > 80 | > 80 |  |  |  |  | 
COc1cc(F)ccc1[C@H](OC1CC1)[C@H](C)OC(=O)[C@H](C)NC(=O)c1nccc(OC)c1OC(C)=O [Example 298] | < 80 | < 0 | > 80 | < 80 | < 80 | > 80 |  |  |  |  | 
COc1cc(F)ccc1[C@@H](Oc1ccc(C)cc1Cl)[C@H](C)OC(=O)[C@H](C)NC(=O)c1nccc(OC)c1OC(C)=O [Example 266] | > 80 | > 80 | < 80 | < 0 | > 80 | < 80 |  |  |  |  | 
COc1cc(F)ccc1[C@@H](Oc1ccccc1)[C@H](C)OC(=O)[C@H](C)NC(=O)c1nccc(OC)c1OC(C)=O [Example 269] | > 80 | > 80 | > 80 |  | > 80 | > 80 | B (≦80) |  |  |  | 
COc1cc(F)ccc1[C@@H](OC(=O)C1CC1)[C@H](C)OC(=O)[C@H](C)NC(=O)c1nccc(OC)c1OC(C)=O [Example 297] | < 0 | < 80 | < 80 | < 80 | < 0 | < 0 |  |  |  |  | 
COc1cc(F)ccc1[C@@H](OCC(F)F)[C@H](C)OC(=O)[C@H](C)NC(=O)c1nccc(OC)c1OC(C)=O [Example 294] | > 80 | > 80 | < 80 | < 80 | < 80 | < 80 |  |  |  |  | 
COc1ccnc(C(=O)N[C@@H](C)C(=O)O[C@@H](C)[C@H](OCC2CC2)c2ccccc2)c1OC(C)=O [Example 233] | > 80 | > 80 | > 80 | < 80 | > 80 | > 80 |  |  |  |  | 
CCCO[C@H](c1ccccc1)[C@H](C)OC(=O)[C@H](C)NC(=O)c1nccc(OC)c1OC(C)=O [Example 228] | < 80 | > 80 | > 80 | < 0 | > 80 | > 80 |  |  |  |  | 
C=CCOc1cc(F)ccc1[C@@H](Oc1ccccc1)[C@H](C)OC(=O)[C@H](C)NC(=O)c1nccc(OC)c1OC(C)=O [Example 264] | > 80 | > 80 | < 80 | < 80 | > 80 | < 0 |  |  |  |  | 
COc1ccnc(C(=O)N[C@@H](C)C(=O)O[C@@H](C)[C@H](OCC(C)C)c2ccccc2)c1OC(C)=O [Example 225] | < 80 | > 80 | > 80 | < 80 | > 80 | > 80 |  |  |  |  | 
CCOc1cc(F)ccc1[C@@H](Oc1ccccc1)[C@H](C)OC(=O)[C@H](C)NC(=O)c1nccc(OC)c1OC(C)=O [Example 265] | > 80 | > 80 | < 80 | < 0 | > 80 | > 80 |  |  |  |  | 
COc1ccnc(C(=O)N[C@@H](C)C(=O)O[C@@H](C)[C@H](Oc2ccccc2)c2ccccc2)c1OC(C)=O [Example 184] | > 80 | > 80 | < 80 | < 80 | > 80 | > 80 |  |  |  |  | 
COc1ccnc(C(=O)N[C@@H](C)C(=O)O[C@@H](C)[C@H](Oc2ccccc2)c2cccc3ccccc23)c1OCOC(C)=O [Example 262] | > 80 | > 80 | > 80 | < 0 | > 80 | > 80 |  |  |  |  | 
COc1ccnc(C(=O)N[C@@H](C)C(=O)O[C@@H](C)[C@H](Oc2ccc(Cl)cc2)c2ccccc2)c1OCOC(C)=O [Example 201] | > 80 | > 80 |  |  | > 80 | > 80 |  |  |  |  | 
COc1ccnc(C(=O)N[C@@H](C)C(=O)O[C@@H](C)[C@H](Oc2ccc(C)cc2Cl)c2ccccc2)c1OCOC(C)=O [Example 244] | > 80 | > 80 |  |  | > 80 | < 80 |  |  |  |  | 
COc1ccnc(C(=O)N[C@@H](C)C(=O)O[C@@H](C)[C@H](Oc2ccc(Cl)cc2Cl)c2ccccc2)c1OCOC(C)=O [Example 199] | > 80 | > 80 |  |  | > 80 | < 80 |  |  |  |  | 
COc1ccnc(C(=O)N[C@@H](C)C(=O)O[C@@H](C)[C@H](Oc2cccc(Cl)c2)c2ccccc2)c1O [Example 118] |  |  |  |  |  |  |  | > 80 | > 80 | > 80 | > 80
COc1cc(F)ccc1[C@@H](Oc1ccc(C)cc1)[C@H](C)OC(=O)[C@H](C)NC(=O)c1nccc(OC)c1O [Example 173] |  |  |  |  |  |  |  | > 80 | > 80 | > 80 | > 80
COc1ccnc(C(=O)N[C@H](C(=O)O[C@@H](C)[C@H](Oc2ccc(C(F)(F)F)cc2)c2ccccc2)C(C)C)c1OC(C)=O [Example 198] | > 80 | < 0 |  |  | > 80 | < 80 |  |  |  |  | 
